In patent US12552815B2, “Boronic acid derivatives and synthesis, polymorphic forms, and therapeutic uses thereof” (QPEX BIOPHARMA, INC., priority 2020, dated 2026):

Assay: Dynamic vapor sorption (DVS) analysis
Assay type: physicochemical
Conditions: for hygroscopicity / water uptake by dynamic vapor sorption (DVS): 25° C., 10% RH steps from 5 to 95% RH and from 95 to 5% RH
Experimental: DVS analysis was carried out using a TA Instruments Q5000 Dynamic Vapor Sorption analyzer. The instrument was calibrated with standard weights and a sodium bromide standard for humidity. Approximately 20 mg of sample was loaded into a metal-coated quartz pan for analysis. The sample was analyzed at 25° C. with a maximum equilibration time of one hour in 10% relative humidity (RH) steps from 5 to 95% RH (adsorption cycle) and from 95 to 5% RH (desorption cycle). The movement from one step to the next occurred either after satisfying the equilibrium criterion of 0.01% weight change or, if the equilibrium criterion was not met, after one hour. The percent weight change values were calculated using Microsoft Excel®. The temperature for the DVS analysis can impact the outcome of the results.
Differential Scanning Calorimetry (5° C./min), Thermogravimetric analysis (5° C./min), and Dynamic Vapor Sorption (stepwise RH decrease from 45% to 0% at 50° C.) data for highly crystalline Form A of Compound I′ prepared analogously to the crystallization method above is shown in FIGS. 27-29, respectively.

## CCOC(=O)c1c(F)ccc2c1O[B-]1(C=C2)O[C@@H](c2ccccc2)[C@H](C)[NH+]1C (stereo partly shown) [Compound A-3, pseudoephedrine complex of ethyl 7-fluoro-2-hydroxy-2H-benzo[e][1,2]oxaborinine-8-carboxylate]
  hygroscopicity / water uptake by dynamic vapor sorption (DVS): not hygroscopic

## CCOC(=O)c1c(F)ccc2c1O[B-]1(O[C@@H](c3ccccc3)[C@H](C)[NH+]1C)[C@@H]1C[C@H]21 (stereo partly shown) [Compound A-4]
  hygroscopicity / water uptake by dynamic vapor sorption (DVS): not hygroscopic

## O=C([O-])c1c(F)ccc2c1O[B-](O)(O)[C@@H]1C[C@H]21.[Na+].[Na+] [Form A of Compound I′]
  hygroscopicity / water uptake by dynamic vapor sorption (DVS): hygroscopic
Relative humidity range of 5% to 75%, FIG. 29, stepwise RH decrease from 45% to 0% at 50° C.
  gain/loss of water by dynamic vapor sorption (DVS), highly crystalline sample: resists gain/loss of water
